The record followed here is patent EP0552765B1, “Benzimidazoles, pharmaceutical compositions containing them and process for their preparation” (Dr. Karl Thomae GmbH, priority 1992, dated 1993).

The test deals with Angiotensin II-Rezeptor. Kind of test: Angiotensin II receptor binding (displacement of [125I]-Angiotensin II from rat lung homogenate). Conditions: Rattenlunge homogenate; 50 pM [125I]-Angiotensin II; 60 Min. at 37°C; IC50 from dose-response curve. Details: species or system Ratte. How it is done:
Methodenbeschreibung Angiotensin II-Rezeptorbindung
Das Gewebe (Rattenlunge) wird in Tris-Puffer (50 mMol Tris, 150 mMol NaCl, 5 mMol EDTA, pH 7.40) homogenisiert und zweimal je 20 Min. bei 20.000 x g zentrifugiert. Das endgültige Pellet wird in Inkubations-Puffer (50 mMol Tris, 5 mMol MgCl2, 0,2 % BSA, pH 7,40) 1:75, bezogen auf das Feuchtgewicht des Gewebes, resuspendiert. Je 0,1 ml Homogenat wird für 60 Min. bei 37°C mit 50 pM [125^I]-Angiotensin II (NEN, Dreieich, FRG) und steigenden Konzentrationen der Testsubstanz in einem Gesamtvolumen von 0,25 ml inkubiert. Die Inkubation wird durch rasche Filtration durch Glasfiber-Filtermatten beendet. Die Filter werden je 4 ml eiskaltem Puffer (25 mMol Tris, 2.5 mMol MgCl2, 0,1 % BSA, pH 7,40) gewaschen. Die gebundene Radioaktivität wird in einem Gamma-Counter ermittelt. Aus der Dosis-Wirkungskurve wird der entsprechende IC50-Wert ermittelt.

Counter-ions that a name gives are not always drawn.

On to `CCCc1nc2c(C)cc(-c3cn(C)cn3)cc2n1Cc1ccc(-c2ccccc2C(=O)O)cc1` [Substanz A, 4'-[(2-n-Propyl-4-methyl-6-(1-methyl-imidazol-4-yl)-benzimidazol-1-yl)-methyl]-biphenyl-2-carbonsäure, reference compound], for which the 50% inhibitory concentration (IC50) came to 1.2 nM. As for `CCCc1nc2c(C)cc(-c3coc(C)n3)cc2n1Cc1ccc(-c2ccccc2C(=O)O)cc1` [Substanz C, 4'-[(2-n-Propyl-4-methyl-6-(2-methyl-oxazol-4-yl)-benzimidazol-1-yl)-methyl]-biphenyl-2-carbonsäure], the figure is 40 nM.

Turning to `CCOc1nc2ccc(-c3cn(C(C)C)cn3)cc2n1Cc1ccc(-c2ccccc2C(=O)O)cc1` [Substanz D, 4'-[(2-Ethoxy-6-(1-isopropyl-imidazol-4-yl)-benzimidazol-1-yl)-methyl]-biphenyl-2-carbonsäure], the IC50 amounted to 10 nM. As to `CCCc1nc2c(C)cc(-c3cn(C4CCCCCC4)cn3)cc2n1Cc1ccc(-c2ccccc2C(=O)O)cc1` [Substanz E, 4'-[(2-n-Propyl-4-methyl-6-(1-cycloheptyl-imidazol-4-yl)-benzimidazol-1-yl)-methyl]-biphenyl-2-carbonsäure], the IC50 amounted to 15 nM.

Compound `CCCc1nc2c(C)cc(-c3cn(CC(N)=O)cn3)cc2n1Cc1ccc(-c2ccccc2C(=O)O)cc1` [Substanz F, 4'-[(2-n-Propyl-4-methyl-6-(1-aminocarbonylmethyl-imidazol-4-yl)-benzimidazol-1-yl)-methyl]-biphenyl-2-carbonsäure] had an IC50 of 3.4 nM. `CCCc1nc2c(C)cc(-c3cn(CCCN(C)C)cn3)cc2n1Cc1ccc(-c2ccccc2C(=O)O)cc1` [Substanz G, 4'-[(2-n-Propyl-4-methyl-6-(1-(3-dimethylaminopropyl)-imidazol-4-yl)-benzimidazol-1-yl)-methyl]-biphenyl-2-carbonsäure-dihydrochlorid-pentahydrat] returned a half-inhibitory concentration (IC50) of 1.3 nM.
